Test systems include HCT-116 colon; HOP-62 NSCLC; K-562 leukemia; LOX IMVI melanoma; MALME-3M melanoma; NCI-H460 lung; SF-539 CNS; SK-MEL-2 melanoma; SW-620 colon; HS 578T breast.
What all share (assay): DTP human tumour cell line panel, 48 h

Here are results for 22 compounds from PubChem BioAssay (NCI).

“And” between values parts separate entries of the source, which are not always exact repeats. Equal values may be shown once.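 How tested: cells in 96-well plates exposed to compound for 48 hours at five concentrations. GI50: concentration for 50% inhibition of growth. Definition used: TGI = concentration required for complete inhibition of growth.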 Where a SMILES comes first, the peptide text is derived from it. The star is where a group is joined. Boc = CC(C)(C)OC(=O)* Bounds are passed on as bounds.

As a reminder, the TGI is the concentration giving total growth inhibition. The low end stands for greater sensitivity of the cells, the high end for lower sensitivity of the cells. Take `Cc1cc(S(=O)(=O)Nc2nc3cscc3c(=O)n2N)c(S)cc1Cl`: the TGI in the experiment on HCT-116 colon is above 100 µM; in the experiment on HOP-62 NSCLC, above 100 µM; with K-562 leukemia it was above 100 µM; with LOX IMVI melanoma, above 100 µM; in the experiment with MALME-3M melanoma, 90.4 µM; in the experiment on NCI-H460 lung, above 100 µM. Also, the TGI with SF-539 CNS, in the experiment on SK-MEL-2 melanoma and in the experiment on SW-620 colon was above 100 µM each time.

The term GI50 denotes the concentration giving 50% growth inhibition. As for `O=C1C(N2CCN(CCOCCO)CC2)=C(Cl)C(=O)c2ncccc21`, the GI50 in the experiment with HCT-116 colon was 18.5 µM; in the experiment on HOP-62 NSCLC it was above 100 µM; in the experiment on K-562 leukemia it was 13.3 µM; with MALME-3M melanoma it was 19.3 µM. Further, the TGI in the experiment with HCT-116 colon is 33.5 µM; with HOP-62 NSCLC, above 100 µM; in the experiment on K-562 leukemia it was 34.4 µM; with LOX IMVI melanoma it was 26.7 µM; in the experiment with MALME-3M melanoma it was 33.8 µM; in the experiment on NCI-H460 lung, above 100 µM. The values for the TGI in the experiment on SF-539 CNS, with SK-MEL-2 melanoma and in the experiment with SW-620 colon were 44.6 µM, 43.9 µM and 50.7 µM, respectively.

Regarding `Cc1cn(C2CC(COCc3ccccc3)N(CCO[Si](C)(C)C(C)(C)C)O2)c(=O)[nH]c1=O` (centres undefined), the TGI came to 43 µM in the experiment with HCT-116 colon; 31 µM in the experiment with HOP-62 NSCLC; 19.3 µM with K-562 leukemia; 34.3 µM in the experiment on MALME-3M melanoma; 35.2 µM with NCI-H460 lung; 33.9 µM in the experiment on SF-539 CNS. The TGI worked out at 30 µM in the experiment on SK-MEL-2 melanoma and 35.6 µM in the experiment with SW-620 colon.

Consider `CC(C)[C@H](C)/C=C/[C@@H](C)C1CC[C@H]2[C@@]34C=C[C@]5(C[C@@H](O)CC[C@]5(C)[C@H]3CC[C@]12C)OO4` (some centres undefined), for which the TGI in the experiment with HCT-116 colon was 42.8 µM; in the experiment on HOP-62 NSCLC it was above 100 µM; in the experiment with LOX IMVI melanoma, 41.6 µM; in the experiment on NCI-H460 lung, above 100 µM; with SF-539 CNS it was above 100 µM; in the experiment with SK-MEL-2 melanoma, 88.8 µM. This compound also registered a TGI in the experiment on SW-620 colon of 78.8 µM.

For the compound `Cc1ccc(N2C(=O)C3CSCN3C2=O)cc1` (centres undefined), the GI50 with HCT-116 colon and in the experiment on MALME-3M melanoma was above 100 µM throughout. For the same compound, the TGI is > 100 µM and 11.7 µM in the experiment with HCT-116 colon; above 100 µM in the experiment on HOP-62 NSCLC; above 100 µM in the experiment with K-562 leukemia; above 100 µM in the experiment with LOX IMVI melanoma; above 100 µM in the experiment on MALME-3M melanoma; above 100 µM in the experiment with NCI-H460 lung. Further, the TGI in the experiment on SF-539 CNS, with SK-MEL-2 melanoma and with SW-620 colon was above 100 µM each time.

For `Cc1nc(C)c(N2CCN(CN)CC2)c(=O)[nH]1`, the TGI with HCT-116 colon, in the experiment with HOP-62 NSCLC, with HS 578T breast, in the experiment with K-562 leukemia, with LOX IMVI melanoma and in the experiment on MALME-3M melanoma was above 100 µM each time. Besides, the TGI in the experiment with NCI-H460 lung, in the experiment on SF-539 CNS and in the experiment on SW-620 colon was above 100 µM throughout.

On to `O=c1c2ccccc2nc(N/N=C/c2ccc([N+](=O)[O-])cc2)n1-c1ccccc1`, for which the TGI in the experiment with HCT-116 colon was above 100 µM; in the experiment with HOP-62 NSCLC, 67.5 µM; in the experiment on HS 578T breast it was 68.1 µM; in the experiment on K-562 leukemia, above 100 µM; in the experiment with LOX IMVI melanoma it was above 100 µM; in the experiment with MALME-3M melanoma, above 100 µM. In addition, the TGI with NCI-H460 lung is above 100 µM.

Consider `COc1ccc(/C=c2\[nH]c3nc(=O)c(N4CCCCC4)c(N)n3c2=O)cc1`, for which the TGI with HCT-116 colon, in the experiment on HS 578T breast, in the experiment on K-562 leukemia, with LOX IMVI melanoma, with MALME-3M melanoma and in the experiment with SF-539 CNS was above 100 µM in each case. In the experiment on SW-620 colon, this compound registered a TGI above 100 µM.

Turning to `Cc1cc2c(=O)c3ccc(Cl)cc3[nH]c2c(C(N)=O)c1C`, the TGI in the experiment on HCT-116 colon, with HOP-62 NSCLC, in the experiment with K-562 leukemia, in the experiment on LOX IMVI melanoma, with MALME-3M melanoma and with NCI-H460 lung was above 100 µM each time. The TGI in the experiment with SF-539 CNS, in the experiment on SK-MEL-2 melanoma and in the experiment on SW-620 colon was above 100 µM in each case.

Regarding `CCC1=C(C[C@H]2NCCc3cc(OC)c(OC)cc32)C[C@H]2c3cc(OC)c(OC)cc3CCN2C1`, the concentration for total growth inhibition (TGI) in the experiment with HCT-116 colon came out at 0.0745 µM; with HOP-62 NSCLC, 0.106 µM; in the experiment with MALME-3M melanoma it was 0.637 µM; in the experiment on NCI-H460 lung it was 0.134 µM; in the experiment on SF-539 CNS, 0.148 µM; in the experiment on SK-MEL-2 melanoma, 0.0713 µM. The same compound showed a TGI in the experiment on SW-620 colon of 11.3 µM.

For the compound `COc1ccc(OC)c2c(C)ccnc12`, the TGI is above 100 µM with HCT-116 colon; above 60.9 µM in the experiment with HOP-62 NSCLC; above 100 µM with K-562 leukemia; 46.5 µM in the experiment with LOX IMVI melanoma; above 74.3 µM with MALME-3M melanoma; above 100 µM in the experiment on NCI-H460 lung. Further, the TGI in the experiment on SF-539 CNS was above 68.7 µM; with SK-MEL-2 melanoma, above 100 µM; with SW-620 colon, above 85.6 µM.

In the case of `O=C1CCCCC/C1=C\c1cccc(F)c1`, the TGI in the experiment with HCT-116 colon, in the experiment on HOP-62 NSCLC, with K-562 leukemia, with MALME-3M melanoma, in the experiment on NCI-H460 lung and in the experiment on SF-539 CNS was above 100 µM each time. Moreover, the TGI in the experiment on SK-MEL-2 melanoma and in the experiment with SW-620 colon was above 100 µM each time.

For the compound `Cc1ccc(S(=O)(=O)OCCC2CN(C(=O)OCc3ccccc3)C(C)(C)O2)cc1` (centres undefined), the TGI in the experiment with HCT-116 colon is above 100 µM; in the experiment on K-562 leukemia, above 100 µM; with LOX IMVI melanoma, above 100 µM; in the experiment with MALME-3M melanoma it was 43.3 µM; with NCI-H460 lung, 14.3 µM; in the experiment with SF-539 CNS it was above 100 µM. Further, the TGI was 94.5 µM with SK-MEL-2 melanoma and above 100 µM with SW-620 colon.

For `COC(=O)C1C(=O)CC(C)(O)C(C(=O)OC)C1c1ccc(N(C)C)cc1` (centres undefined), the TGI is 21 µM in the experiment on HCT-116 colon; above 100 µM in the experiment with HOP-62 NSCLC; above 100 µM in the experiment with K-562 leukemia; 24.4 µM in the experiment on LOX IMVI melanoma; above 100 µM with MALME-3M melanoma; above 100 µM in the experiment with NCI-H460 lung. The TGI with SK-MEL-2 melanoma and in the experiment with SW-620 colon was above 100 µM in each case.

With `Cn1c2ccccc2n2c3ncccc3c(=O)cc12`, the TGI in the experiment on HCT-116 colon was 85.9 µM; in the experiment on HOP-62 NSCLC, above 100 µM; in the experiment on K-562 leukemia, above 100 µM; with LOX IMVI melanoma, above 100 µM; in the experiment on MALME-3M melanoma, above 100 µM; with NCI-H460 lung it was above 100 µM. The TGI in the experiment with SF-539 CNS and in the experiment on SW-620 colon was above 100 µM throughout.

Turning to `COc1cccc(C(C#N)NNC(=O)c2c(Cl)c(Cl)c(Cl)c(Cl)c2-c2nc3ccc(C(=O)c4ccccc4)cc3[nH]2)c1O` (centres undefined), the TGI in the experiment with HCT-116 colon is above 100 µM; in the experiment with HOP-62 NSCLC it was 8.59 µM; with K-562 leukemia it was above 100 µM; in the experiment on LOX IMVI melanoma, above 100 µM; with SK-MEL-2 melanoma, 29.4 µM; with SW-620 colon, above 100 µM.

`O=C1c2ccncc2C(=O)c2c(O)ccc(O)c21`: the concentration for total growth inhibition (TGI) amounted to 10.3 µM in the experiment with HCT-116 colon; 61.6 µM with HOP-62 NSCLC; 55.5 µM in the experiment on K-562 leukemia; 18.3 µM in the experiment on LOX IMVI melanoma; 5.44 µM in the experiment on MALME-3M melanoma; 29.4 µM in the experiment on NCI-H460 lung. For the same compound, the TGI amounted to 13.4 µM in the experiment with SF-539 CNS and 11.5 µM in the experiment with SW-620 colon.

`CC(C)(C)OC(=O)C(C#N)C(=O)c1ccc(C(=O)O)[nH]1` (centres undefined): the TGI with HCT-116 colon, in the experiment with K-562 leukemia, in the experiment with LOX IMVI melanoma, in the experiment on MALME-3M melanoma, in the experiment on NCI-H460 lung and with SF-539 CNS was above 100 µM in each case. For the same compound, the values for the TGI in the experiment with SK-MEL-2 melanoma and with SW-620 colon were 68.5 µM and above 100 µM, respectively.

With `COc1cc2nc(N3CCC[C@H](NC4=CC(=O)c5ccccc5C4=O)C3)nc(N)c2cc1OC`, the GI50 in the experiment with HCT-116 colon was 1.64 µM; in the experiment on HOP-62 NSCLC, 2.26 µM; with HS 578T breast, 1.97 µM; in the experiment on K-562 leukemia it was 0.348 µM; in the experiment with NCI-H460 lung, 1.96 µM; in the experiment on SF-539 CNS, 1.94 µM. For the same compound, the GI50 in the experiment on SW-620 colon was 1.5 µM. Also, the concentration for total growth inhibition (TGI) in the experiment on HCT-116 colon was 4.81 µM; with HOP-62 NSCLC, 4.48 µM; with HS 578T breast it was 4.64 µM; in the experiment on K-562 leukemia, 1.42 µM; in the experiment with NCI-H460 lung, 4.01 µM; with SF-539 CNS it was 3.77 µM. The compound further displayed a TGI with SW-620 colon of 3.32 µM.

As to `Cc1cc(C)c2c(c1)C/C(=C\c1cccc(C)c1C(=O)O)C2=O`, the TGI with HCT-116 colon, in the experiment with HOP-62 NSCLC, with K-562 leukemia, in the experiment on LOX IMVI melanoma, in the experiment on MALME-3M melanoma and with NCI-H460 lung was above 100 µM each time. Further, the TGI in the experiment with SF-539 CNS, in the experiment on SK-MEL-2 melanoma and with SW-620 colon was above 100 µM throughout.

Regarding `c1ccc2c[n+](CCCC[n+]3ccc4ccccc4c3)ccc2c1`, the TGI with HCT-116 colon, in the experiment on HOP-62 NSCLC, with K-562 leukemia, in the experiment on LOX IMVI melanoma, with NCI-H460 lung and in the experiment with SF-539 CNS was above 100 µM in each case. The concentration for total growth inhibition (TGI) in the experiment with SK-MEL-2 melanoma and in the experiment with SW-620 colon was above 100 µM in each case.

Take `COC(=O)C(Cc1c[nH]c2ccccc12)NC(=O)C(Cc1c[nH]c2ccccc12)NC(=O)C(Cc1c[nH]c2ccccc12)NC(=O)C(Cc1c[nH]c2ccccc12)NC(=O)C(Cc1c[nH]c2ccccc12)NC(=O)C(Cc1c[nH]c2ccccc12)NC(=O)C(Cc1c[nH]c2ccccc12)NC(=O)OC(C)(C)C` (centres undefined) (Boc-WWWWWWW-OMe; configuration not given here): the TGI with HCT-116 colon, in the experiment on HOP-62 NSCLC, in the experiment with K-562 leukemia, with LOX IMVI melanoma, in the experiment on MALME-3M melanoma and with NCI-H460 lung was above 100 µM each time. Moreover, the TGI in the experiment with SK-MEL-2 melanoma is 87.9 µM; with SW-620 colon, above 100 µM.
